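Cells were grown in 96-well plates and exposed to each compound for 48 hours at five concentrations; endpoints were interpolated linearly between bracketing concentrations, or set to the highest concentration if not reached. GI50 is the concentration that inhibits growth by half.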 The source made the active and inactive calls. Rule as the data show it: active = GI50 up to about 1.1 µM and inactive = higher.
What was measured:
Assay in all cases: NCI-60 cell line screen, 48 h
[1] = tested on: 786-0
[2] = tested on: SF-539
[3] = tested on: RXF 393
[4] = tested on: SF-268
[5] = tested on: NCI-H226
[6] = tested on: TK-10
[7] = tested on: UO-31
[8] = tested on: MOLT-4
[9] = tested on: OVCAR-8
[10] = tested on: COLO 205
[11] = tested on: SF-295
[12] = tested on: MDA-MB-435
[13] = tested on: HOP-92
[14] = tested on: MCF7
[15] = tested on: Malme-3M
[16] = tested on: SN12C
[17] = tested on: UACC-257
[18] = tested on: MDA-MB-231
[19] = tested on: LOX IMVI
[20] = tested on: CCRF-CEM
[21] = tested on: OVCAR-3
[22] = tested on: SR
[23] = tested on: HOP-62
[24] = tested on: SK-MEL-28
[25] = tested on: A549
[26] = tested on: RPMI-8226
[27] = tested on: HT-29
[28] = tested on: KM12
[29] = tested on: NCI-H23
[30] = tested on: SNB-19
[31] = tested on: Hs-578T
[32] = tested on: U-251
[33] = tested on: NCI-H460
[34] = tested on: SNB-75
[35] = tested on: MDA-N
[36] = tested on: DU-145
[37] = tested on: HCC 2998
[38] = tested on: ACHN
[39] = tested on: SK-OV-3
[40] = tested on: NCI-H522
[41] = tested on: IGROV-1
[42] = tested on: HCT-116
[43] = tested on: HCT-15
[44] = tested on: BT-549
[45] = tested on: A498
[46] = tested on: K562
[47] = tested on: HL-60
[48] = tested on: NCI/ADR-RES
[49] = tested on: EKVX
[50] = tested on: OVCAR-5
[51] = tested on: PC-3
[52] = tested on: UACC-62
[53] = tested on: M14
[54] = tested on: CAKI-1
[55] = tested on: SW-620
[56] = tested on: OVCAR-4
[57] = tested on: SK-MEL-5
[58] = tested on: SK-MEL-2
[59] = tested on: T47D

## Nc1nc(N)c2nnn(C[C@H]3CC[C@@H](CO)C3)c2n1
[1]
  GI50: > 100 µM (inactive)
[2]
  GI50: > 100 µM (inactive)
[3]
  GI50: > 100 µM (inactive)
[4]
  GI50: > 100 µM (inactive)
[5]
  GI50: > 100 µM (inactive)
[6]
  GI50: > 100 µM (inactive)
[7]
  GI50: > 100 µM (inactive)
[8]
  GI50: > 100 µM (inactive)
[9]
  GI50: > 100 µM (inactive)
[10]
  GI50: > 100 µM (inactive)
[11]
  GI50: > 100 µM (inactive)
[12]
  GI50: > 100 µM (inactive)
[13]
  GI50: > 100 µM (inactive)
[14]
  GI50: > 100 µM (inactive)
[15]
  GI50: > 100 µM (inactive)
[16]
  GI50: 38.5 µM (inactive)
[17]
  GI50: > 100 µM (inactive)
[18]
  GI50: > 100 µM (inactive)
[19]
  GI50: > 100 µM (inactive)
[20]
  GI50: > 100 µM (inactive)
[21]
  GI50: > 100 µM (inactive)
[22]
  GI50: > 100 µM (inactive)
[23]
  GI50: > 100 µM (inactive)
[24]
  GI50: > 100 µM (inactive)
[25]
  GI50: > 100 µM (inactive)
[26]
  GI50: > 100 µM (inactive)
[27]
  GI50: > 100 µM (inactive)
[28]
  GI50: > 100 µM (inactive)
[29]
  GI50: > 100 µM (inactive)
[30]
  GI50: > 100 µM (inactive)
[31]
  GI50: > 100 µM (inactive)
[32]
  GI50: > 100 µM (inactive)
[33]
  GI50: > 100 µM (inactive)
[34]
  GI50: > 100 µM (inactive)
[35]
  GI50: > 100 µM (inactive)
[36]
  GI50: > 100 µM (inactive)
[37]
  GI50: > 100 µM (inactive)
[38]
  GI50: > 100 µM (inactive)
[39]
  GI50: > 100 µM (inactive)
[40]
  GI50: > 100 µM (inactive)
[41]
  GI50: 54.7 µM (inactive)
[42]
  GI50: > 100 µM (inactive)
[43]
  GI50: > 100 µM
[44]
  GI50: > 100 µM (inactive)
[45]
  GI50: > 100 µM (inactive)
[46]
  GI50: > 100 µM (inactive)
[47]
  GI50: > 100 µM (inactive)
[48]
  GI50: > 100 µM (inactive)
[49]
  GI50: > 100 µM (inactive)
[50]
  GI50: > 100 µM (inactive)
[51]
  GI50: > 100 µM (inactive)
[52]
  GI50: > 100 µM (inactive)
[53]
  GI50: > 100 µM (inactive)
[54]
  GI50: > 100 µM (inactive)
[55]
  GI50: > 100 µM (inactive)

## N#CC(NNC(=O)c1c(Cl)c(Cl)c(Cl)c(Cl)c1-c1nc2cc(C(=O)c3ccccc3)ccc2[nH]1)c1cccc(Oc2ccccc2)c1 (configuration not stated)
[1]
  GI50: 22 µM (inactive)
[2]
  GI50: 20.7 µM (inactive)
[3]
  GI50: 16.9 µM (inactive)
[5]
  GI50: 21.3 µM (inactive)
[6]
  GI50: 31.3 µM (inactive)
[7]
  GI50: 30.8 µM (inactive)
[8]
  GI50: 24.3 µM (inactive)
[9]
  GI50: 41.6 µM (inactive)
[10]
  GI50: 20.8 µM (inactive)
[11]
  GI50: 28.5 µM (inactive)
[12]
  GI50: 16.6 µM (inactive)
[13]
  GI50: 17.5 µM (inactive)
[14]
  GI50: 20.3 µM (inactive)
[16]
  GI50: 23.9 µM (inactive)
[17]
  GI50: 38.1 µM (inactive)
[18]
  GI50: 19 µM (inactive)
[19]
  GI50: 37.8 µM (inactive)
[20]
  GI50: 15.6 µM (inactive)
[21]
  GI50: 28.1 µM (inactive)
[22]
  GI50: 20.6 µM (inactive)
[23]
  GI50: 25.8 µM (inactive)
[24]
  GI50: 24.3 µM (inactive)
[25]
  GI50: 30.9 µM (inactive)
[26]
  GI50: 34.8 µM (inactive)
[27]
  GI50: 27.4 µM (inactive)
[28]
  GI50: 36.6 µM (inactive)
[29]
  GI50: 26.4 µM (inactive)
[30]
  GI50: 26.6 µM (inactive)
[56]
  GI50: 18.6 µM (inactive)
[32]
  GI50: 23.4 µM (inactive)
[57]
  GI50: 15.4 µM (inactive)
[34]
  GI50: 23.7 µM (inactive)
[35]
  GI50: 15.4 µM (inactive)
[58]
  GI50: 20.5 µM (inactive)
[36]
  GI50: 28.3 µM (inactive)
[38]
  GI50: 25.6 µM (inactive)
[59]
  GI50: 18.9 µM (inactive)
[39]
  GI50: 33.8 µM (inactive)
[41]
  GI50: 26.7 µM (inactive)
[42]
  GI50: 29.6 µM (inactive)
[43]
  GI50: 18.4 µM
[44]
  GI50: 19.1 µM (inactive)
[45]
  GI50: 20.8 µM (inactive)
[46]
  GI50: 27.5 µM (inactive)
[47]
  GI50: 28.3 µM (inactive)
[48]
  GI50: 19 µM (inactive)
[49]
  GI50: 15.8 µM (inactive)
[50]
  GI50: 28.7 µM (inactive)
[51]
  GI50: 18.8 µM (inactive)
[53]
  GI50: 25.6 µM (inactive)
[54]
  GI50: 35.2 µM (inactive)
[55]
  GI50: 27.7 µM (inactive)

From ChEMBL document CHEMBL1201862, “PubChem BioAssay data set” (2004)
